In ChEMBL document CHEMBL4145540 (Eur J Med Chem, 2018):
Activity calls are given as the source filed them. The calls are words filed in the database; no cut-off is given here.

Columns and labels:
[1] = system: HT-29; test: Antiproliferative activity against human HT-29 cells after 2 days by MTT assay; assay type: functional, cell-based; conditions: HT-29, 48 h
[2] = system: MCF7; test: Antiproliferative activity against human MCF7 cells after 2 days by MTT assay; assay type: functional, cell-based; conditions: MCF7, 48 h
[3] = system: HeLa; test: Antiproliferative activity against human HeLa cells after 2 days by MTT assay; assay type: functional, cell-based; conditions: 48 h
[4] = system: A549; test: Antiproliferative activity against human A549 cells after 2 days by MTT assay; assay type: functional, cell-based; conditions: A549, 48 h
[5] = system: HL-60; test: Antiproliferative activity against human HL60 cells after 2 days by MTT assay; assay type: functional, cell-based; conditions: HL-60, 48 h
[6] = system: HMEC-1; test: Antiproliferative activity against HMEC1 cells after 2 days by MTT assay; assay type: functional, cell-based; conditions: Homo sapiens, HMEC-1, 48 h
[7] = system: HEK293; test: Antiproliferative activity against HEK293 cells after 2 days by MTT assay; assay type: cell-based; conditions: Homo sapiens, HEK293, 48 h
[8] = system: MDA-MB-231; test: Antiproliferative activity against human MDA-MB-231 cells after 3 days by coulter counting method; assay type: functional, cell-based; conditions: MDA-MB-231, 72 h
[9] = system: A549; test: Disruption of microtubule network in human A549 cells assessed as appearance of tubulin aggregates at 150 nM after 16 hrs by Hoechst staining based immunofluorescence assay; assay type: cell-based
[10] = system: A549; test: Disruption of microtubule network in human A549 cells assessed as appearance of compressed and fragmented nuclei at 150 nM after 16 hrs by Hoechst staining based immunofluorescence assay; assay type: cell-based
[11] = system: A549; test: Cell cycle arrest in human A549 cells assessed as accumulation at sub-G0 phase at 40 nM after 20 hrs by propidium iodide staining based flow cytometry (reference value: 6.6 +/- 0.1%); assay type: functional
[12] = system: A549; test: Cell cycle arrest in human A549 cells assessed as accumulation at G0/G1 phase at 40 nM after 20 hrs by propidium iodide staining based flow cytometry (reference value: 66 +/- 1%); assay type: functional
[13] = system: A549; test: Cell cycle arrest in human A549 cells assessed as accumulation at S phase at 40 nM after 20 hrs by propidium iodide staining based flow cytometry (reference value: 16 +/- 1%); assay type: functional
[14] = system: A549; test: Cell cycle arrest in human A549 cells assessed as accumulation at G2/M phase at 40 nM after 20 hrs by propidium iodide staining based flow cytometry (reference value: 11 +/- 1%); assay type: functional
[15] = system: A549; test: Induction of apoptosis in human A549 cells at 100 nM after 24 hrs by Annexin V-FITC/propidium iodide staining based flow cytometry (reference value: 28%); assay type: functional
[16] = system: A549; test: Induction of apoptosis in human A549 cells at 10 nM after 24 hrs by Annexin V-FITC/propidium iodide staining based flow cytometry (reference value: 28%); assay type: functional
[17] = system: A549; test: Induction of apoptosis in human A549 cells after 24 hrs by Annexin V-FITC/propidium iodide staining based flow cytometry; assay type: functional, cell-based
[18] = system: A549; test: Cell cycle arrest in human A549 cells assessed as accumulation at sub-G0 phase at 90 nM after 20 hrs by propidium iodide staining based flow cytometry (reference value: 6.6 +/- 0.1%); assay type: functional
[19] = system: A549; test: Cell cycle arrest in human A549 cells assessed as accumulation at G0/G1 phase at 90 nM after 20 hrs by propidium iodide staining based flow cytometry (reference value: 66 +/- 1%); assay type: functional
[20] = system: A549; test: Cell cycle arrest in human A549 cells assessed as accumulation at S phase at 90 nM after 20 hrs by propidium iodide staining based flow cytometry (reference value: 16 +/- 1%); assay type: functional
[21] = system: A549; test: Cell cycle arrest in human A549 cells assessed as accumulation at G2/M phase at 90 nM after 20 hrs by propidium iodide staining based flow cytometry (reference value: 11 +/- 1%); assay type: functional
[22] = system: A549; test: Cell cycle arrest in human A549 cells assessed as accumulation at sub-G0 phase at 160 nM after 20 hrs by propidium iodide staining based flow cytometry (reference value: 6.6 +/- 0.1%); assay type: functional
[23] = system: A549; test: Cell cycle arrest in human A549 cells assessed as accumulation at G0/G1 phase at 160 nM after 20 hrs by propidium iodide staining based flow cytometry (reference value: 66 +/- 1%); assay type: functional
[24] = system: A549; test: Cell cycle arrest in human A549 cells assessed as accumulation at S phase at 160 nM after 20 hrs by propidium iodide staining based flow cytometry (reference value: 16 +/- 1%); assay type: functional
[25] = system: A549; test: Cell cycle arrest in human A549 cells assessed as accumulation at G2/M phase at 160 nM after 20 hrs by propidium iodide staining based flow cytometry (reference value: 11 +/- 1%); assay type: functional
[26] = organism: Bos taurus; test: Inhibition of calf brain tubulin polymerization after 60 mins by turbidimetric method
[27] = system: A549; test: Disruption of microtubule network in human A549 cells assessed as appearance of tubulin aggregates at 230 nM after 16 hrs by Hoechst staining based immunofluorescence assay; assay type: cell-based
[28] = system: A549; test: Disruption of microtubule network in human A549 cells assessed as appearance of compressed and fragmented nuclei at 230 nM after 16 hrs by Hoechst staining based immunofluorescence assay; assay type: cell-based
[29] = system: A549; test: Cell cycle arrest in human A549 cells assessed as accumulation at sub-G0 phase at 60 nM after 20 hrs by propidium iodide staining based flow cytometry (reference value: 6.6 +/- 0.1%); assay type: functional
[30] = system: A549; test: Cell cycle arrest in human A549 cells assessed as accumulation at G0/G1 phase at 60 nM after 20 hrs by propidium iodide staining based flow cytometry (reference value: 66 +/- 1%); assay type: functional
[31] = system: A549; test: Cell cycle arrest in human A549 cells assessed as accumulation at S phase at 60 nM after 20 hrs by propidium iodide staining based flow cytometry (reference value: 16 +/- 1%); assay type: functional
[32] = system: A549; test: Cell cycle arrest in human A549 cells assessed as accumulation at G2/M phase at 60 nM after 20 hrs by propidium iodide staining based flow cytometry (reference value: 11 +/- 1%); assay type: functional
[33] = system: HMEC-1; test: Vascular disruptive activity in HMEC1 cells assessed as disruption of preformed tubular networks after 4 hrs by matrigel based assay; assay type: functional, cell-based; conditions: Homo sapiens

SMILES	IC50 [1] [µM]	IC50 [2] [µM]	IC50 [3] [µM]	IC50 [4] [µM]	IC50 [5] [µM]	IC50 [6] [µM]	IC50 [7] [µM]	IC50 [8] [µM]	Activity [15] [%]	Activity [16] [%]	Activity [17]	also measured
COc1ccc(/C=C\c2cc(OC)c(OC)c(OC)c2)cc1NC(=O)Oc1ccccc1	0.0029	0.0098	0.0048	0.077	0.004	0.012	0.0033	0.0118	91	45	Dose-dependent effect	Activity [9]: Active; Activity [10]: Active; Activity [11]: 20%; Activity [12]: 21%; Activity [13]: 15%; Activity [14]: 44%
COc1ccc(/C=C\c2cc(OC)c(OC)c(OC)c2)cc1NC(=O)Oc1ccccc1Br	0.0075	0.0189	0.0026	0.18	0.003	0.022	0.008	0.0134				Activity [18]: 17%; Activity [19]: 29%; Activity [20]: 10%; Activity [21]: 44%
COc1ccc(/C=C\c2cc(OC)c(OC)c(OC)c2)cc1NC(=O)Oc1ccccc1F	0.11	0.062	0.017	0.32	0.004	0.18	0.065	0.071				Activity [22]: 17%; Activity [23]: 31%; Activity [24]: 13%; Activity [25]: 39%
COc1ccc(/C=C\c2cc(OC)c(OC)c(OC)c2)cc1N	0.022	0.008	0.0026	0.117	0.0045	0.012	0.0071	0.012	62	56	Dose-dependent effect	inhibition [26]: Active; Activity [27]: Active; Activity [28]: Active; Activity [29]: 14%; Activity [30]: 21%; Activity [31]: 24%; Activity [32]: 41%; Activity [33]: Dose-dependent effect
